According to US6610502B1, “Compound 2-amino-3-[2-(α-mannopyranosyl)indol-3-yl]propionic acid, process for preparing the same, and method for inspecting function of living body with the novel compound” (Kyowa Medex Co., Ltd., priority 1997, dated 2003):

Tests used:
Type in all cases: in vivo, human
[1] = Assay of excreted amount in urine: the present compound by enzyme immunoassay (Example 9); conditions: healthy persons
Procedure: Enzyme immunoassay was performed using the antibody prepared in Example 6. First, 50 μl of 2-amino-3-[2-(α-D-mannopyranosyl)indole-3-yl]propionic acid-BSA conjugate solution (20 μg/ml 0.1M carbonate buffer, pH9.5) was dispensed into a 96-well microtiter plate (NUNC. Corp.) and left to stand at 4° C. overnight. After washing the plate three times with PBS, 250 μl of 1% BSA/PBS solution was dispensed into the plate and left to stand at room temperature for 1 hour. Then, the plate was washed three times with PBS to be used as a reaction plate. Next, 50 μl of a test sample diluted with 0.1M phosphate buffer (pH 7.4) supplemented with varied concentrations of 2-amino-3-[2-(α-D-mannopyranosyl)indole-3-yl]propionic acid/0.1%BSA or 0.1M phosphate buffer supplemented with 0.1% BSA (pH7.4) was dispensed into the reaction plate into which 50 μl of the monoclonal antibody prepared in Example 6 (10 ng/ml, 0.1M phosphate buffer solution supplemented with 0.1% BSA, pH7.4) was added while stirring. The mixture was allowed to react at room temperature for 3 hours. Then, after the reaction was completed, the plate was washed five times with PBS containing 0.05% Tween 20, and then 50 μl of POD labeled-anti-mouse immunoglobulins-rabbit IgG (DAKO) was added to the plate for reaction at room temperature for 1 hour. After the reaction, the plate was washed five times with PBS containing 0.05% Tween 20, added with 50 μl of MCDP/50 mM citrate buffer solution (pH5.0), and the mixture was allowed to react at room temperature for 30 minutes. Finally, 50 μl of a reaction stopper (ethyl diethyldithiocarbamate) was added to the plate, and absorbance was then determined at 660 nm by a microplate reader. The calibration curve is shown in FIG. 5 in which the concentration of 2-amino-3-[2-(α-D-mannopyranosyl)indole-3-yl]propionic acid was indicated as a concentration of single compound.
Healthy persons (male and female, from newborn to 90 year-old) were assayed for levels of 2-amino-3-[2-(α-mannopyranosyl)indole-3-yl]propionic acid in their urine as described in Example 7, to evaluate the usefulness of the method of the present invention for measurement of renal functions. Urine samples stored for 24 hours were pooled, their volumes were determined, and then partially stored at −80° C. until use. Upon use, the frozen urine samples were thawed and kept warm at 37° C. Subsequently, after sufficient stirring and mixing, the samples were centrifuged at 3000 rpm for 10 minutes to remove impurities. The resultant supernatants were used as samples. As a comparative example, creatinine levels in the same test samples were assayed.

[2] = Quantitation of the compound in cerebrospinal fluid by high performance liquid chromatography (Example 4)
Procedure: (§1) Standard solution of 2-amino-3-[2-(α-mannopyranosyl)indole-3-yl]propionic acid obtained in Example 1 above was prepared. Next, 350 μl of the standard solution was added to 500 μl of 0.1N hydrochloric acid containing 1% vitamin C, mixed with 50 μl of 40 μM N-methyl serotonin as an internal standard then 100 μl of 60% perchloric acid, and centrifuged at 3000 rpm at 4° C. The supernatant was filtered through a 0.22 μm filter to obtain a filtrate.
(§2) The filtrate was subjected to high performance liquid chromatography under the following conditions:
(§3) Sera and cerebrospinal fluids from healthy persons and patients with central nervous disease were quantitated for the compound of the present invention. Both sera and cerebrospinal fluids were collected from 22 healthy persons, one patient with spinocerebellar ataxia and one patient with metastatic brain tumor, and quantitated for the compound of the present invention in the sera and the cerebrospinal fluids in the same manner as that of Example 2 except that sera or cerebrospinal fluids were used instead of the standard solution. […] The result of quantitation of the compound in cerebrospinal fluids is shown in FIG. 3 in which ●, □ and Δ show the healthy persons, the patient with spinocerebellar ataxia, and the patient with metastatic brain tumor, respectively. As shown in this figure, the level of the compound in cerebrospinal fluids from healthy persons was determined to be 130.4 ng/ml (SD 29.1). The level of the compound in cerebrospinal fluid from the patient with spinocerebellar ataxia was determined to be 399.4 ng/ml. The level of the compound in cerebrospinal fluid from the patient with metastatic brain tumor was determined to be 822.6 ng/ml.

[3] = Quantitation of the compound in serum by high performance liquid chromatography (Examples 3, 4); conditions: for level in serum: healthy persons, newborns to 90-year-old
Procedure: as §1, §2
Column: Finepak SILC18-T5 (4 mm×25 cm, JASCO Corporation)
Development solvent: Mixed solvent of acetonitrile and buffer (70 mM citric acid: 60 mM disodium phosphate=1;1, v/v, pH3.5)
Detection: Fluorescence, excited at 302 nm, determined at 350 nm
Sera from healthy persons and patients with renal disease were quantitated for the compound of the present invention. First, bloods were collected from the subjects and left to stand at room temperature for 30 minutes for coagulation. Next, the sera were collected by centrifugation at 3000 rpm for 10 minutes and stored at −80° C. until use. Sera from healthy persons (males and females, newborns to 90-year-old persons) were quantitated for the compound of the present invention in the same manner as that of Example 2 except that sera were used instead of the standard solution. […] No difference was detected between ages or between sexes.
Next, sera from patients with renal disease (17 males, average age of 53.9; 13 females, average age of 46.4) were quantitated for the compound of the present invention. […] As shown in this figure, the average value of 856 ng/ml (SD 247) was obtained for samples from male patients while 854 ng/ml (SD 305) for samples from female patients.
as §3

[4] = Quantitation of the compound in amniotic fluid by high performance liquid chromatography (Example 5)
Procedure: as §1, §2
Amniotic fluids from pregnant healthy persons and pregnant patients with uremic syndrome staying in hospital were quantitated for the compound of the present invention. Amniotic fluids were collected from 21 healthy persons (21-41 weeks old) and 9 pregnant patients with uremic syndrome (24-49 weeks old), and assayed for the compound of the present invention. The quantitation was performed in the same manner as that of Example 2 except that amniotic fluids were used instead of the standard solution. The results are shown in FIG. 4 in which Δ and ● show the healthy persons and the pregnant patients with uremic syndrome, respectively. As shown in this figure, 353.0 ng/ml (SD 120.1) was obtained for the healthy persons while […] for the pregnant patients with uremic syndrome.

SMILES: NC(Cc1c([C@H]2O[C@H](CO)[C@@H](O)[C@H](O)[C@@H]2O)[nH]c2ccccc12)C(=O)O (stereo partly drawn) [the present compound, 2-amino-3-[2-(α-mannopyranosyl)indole-3-yl]propionic acid]
- excreted amount in urine, average ([1]; female, age 0-10): 4111 µg/day
- excreted amount in urine, average ([1]; female, age 0-90): 4507 µg/day
- excreted amount in urine, average ([1]; female, age 10-30): 4520 µg/day
- excreted amount in urine, average ([1]; female, age 30-50): 4824 µg/day
- excreted amount in urine, average ([1]; female, age 50-70): 4412 µg/day
- excreted amount in urine, average ([1]; female, age 70-90): 4666 µg/day
- average excretion amount per day ([1]; male and female, all ages): 4.5 mg/day
- excreted amount in urine, average ([1]; male, age 0-10): 4095 µg/day
- excreted amount in urine, average ([1]; male, age 0-90): 4488 µg/day
- excreted amount in urine, average ([1]; male, age 10-30): 4581 µg/day
- excreted amount in urine, average ([1]; male, age 30-50): 4498 µg/day
- excreted amount in urine, average ([1]; male, age 50-70): 4647 µg/day
- excreted amount in urine, average ([1]; male, age 70-90): 4622 µg/day
- range of levels in cerebrospinal fluids from 99% of subjects ([2]; healthy persons (n=22)): 72 to 188 ng/mL
- level in cerebrospinal fluids ([2]; healthy persons (n=22), SD 29.1): 130.4 ng/mL
- level in cerebrospinal fluid ([2]; one patient with metastatic brain tumor): 822.6 ng/mL
- level in cerebrospinal fluid ([2]; one patient with spinocerebellar ataxia): 399.4 ng/mL
- levels in cerebrospinal fluids ([2]; patients with spinocerebellar ataxia or metastatic brain tumor): ≥ 400 ng/mL
- level in serum, average value ([3]; female patients with renal disease (13 females), SD 305): 854 ng/mL
- range of levels in sera from 99% of subjects ([3]; healthy persons (n=50)): 52 to 99 ng/mL
- level in serum ([3]; females, SD 12.6): 74.5 ng/mL
- level in serum ([3]; males, SD 10.3): 76.3 ng/mL
- level in serum, average value ([3]; male patients with renal disease (17 males), SD 247): 856 ng/mL
- range of levels in sera from 99% of subjects ([3]; patients with renal dysfunction (n=30)): 307 to 1403 ng/mL
- level in sera ([3]; sera of Example 4 subjects, SD 13.8): 69.9 ng/mL
- range of levels in amniotic fluids from 99% of subjects ([4]; healthy persons (n=21)): 113 to 593 ng/mL
- level in amniotic fluids ([4]; pregnant healthy persons (n=21), SD 120.1): 353.0 ng/mL
- range of levels in amniotic fluids from 99% of subjects ([4]; pregnant patients with uremic syndrome (n=9)): 675 to 2147 ng/mL
- level in amniotic fluids ([4]; pregnant patients with uremic syndrome (n=9), SD 367.9): 410.7 ng/mL
